Source: PMC7450057, “Enhancing intracellular accumulation and target engagement of PROTACs with reversible covalent chemistry” (Nature Communications, 2020)
“And” between values parts separate entries of the source, which are not always exact repeats. Equal values may be shown once.

What was measured:
[1] = tested on: MOLM-14 cells; experiment: AlamarBlue cell viability assay, MOLM-14; conditions: Supplementary Figure 7, replicates
Experimental: The IC50 was calculated using GraphPad Prism software with a four-parameter dose-response curve fit.

[2] = biological target: BTK (Homo sapiens, UniProt Q06187); experiment: BTK degradation in MOLM-14 cells (western blot); type: cell-based; design: endogenous in cells; host or cells: MOLM-14; conditions: MOLM-14 cells, 200 nM, 24 h incubation
Sequence of BTK (Q06187 whole entry): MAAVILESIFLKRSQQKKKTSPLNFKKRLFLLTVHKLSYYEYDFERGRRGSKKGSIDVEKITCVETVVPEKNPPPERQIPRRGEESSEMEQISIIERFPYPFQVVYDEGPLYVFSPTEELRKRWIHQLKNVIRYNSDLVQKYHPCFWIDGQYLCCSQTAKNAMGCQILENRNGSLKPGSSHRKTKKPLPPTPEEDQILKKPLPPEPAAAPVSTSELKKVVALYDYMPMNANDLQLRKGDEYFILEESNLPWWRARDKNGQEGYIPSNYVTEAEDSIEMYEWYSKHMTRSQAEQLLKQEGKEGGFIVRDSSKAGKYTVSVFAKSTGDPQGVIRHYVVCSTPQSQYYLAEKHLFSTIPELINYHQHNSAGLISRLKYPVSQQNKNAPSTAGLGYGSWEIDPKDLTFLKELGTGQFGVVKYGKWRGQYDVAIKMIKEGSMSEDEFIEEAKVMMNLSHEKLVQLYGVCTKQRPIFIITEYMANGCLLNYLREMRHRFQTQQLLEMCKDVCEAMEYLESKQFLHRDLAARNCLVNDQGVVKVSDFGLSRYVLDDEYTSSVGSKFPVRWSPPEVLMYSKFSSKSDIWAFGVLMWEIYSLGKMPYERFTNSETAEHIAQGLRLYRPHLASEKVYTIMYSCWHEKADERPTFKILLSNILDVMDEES

| Structure (SMILES) | Cell viability, MOML-14 ([1]; drug concentration 1.00E-05 M) | Cell viability, MOML-14 ([1]; drug concentration 1.60E-08 M) | Cell viability, MOML-14 ([1]; drug concentration 2.00E-06 M) | Cell viability, MOML-14 ([1]; drug concentration 3.20E-09 M) | Cell viability, MOML-14 ([1]; drug concentration 4.00E-07 M) | Cell viability, MOML-14 ([1]; drug concentration 6.40E-10 M) | Cell viability, MOML-14 ([1]; drug concentration 8.00E-08 M) | Degradation at 200 nM (percentage of BTK degradation) [2] [%] |
| --- | --- | --- | --- | --- | --- | --- | --- | --- |
| CN(CCCCNC(=O)CNc1cccc2c1C(=O)N(C1CCC(=O)NC1=O)C2=O)C(C)(C)C=C(C#N)C(=O)N1CCC[C@@H](n2nc(-c3ccc(Oc4ccccc4)cc3)c3c(N)ncnc32)C1 (stereo partly shown) [RC-2] | 1.939 (2×) and 0.9797 and 1.263 and 1.918 | 109.825 and 84.2418 and 85.8907 and 118.518 and 93.8319 | 9.2521 and 10.1835 and 11.1012 and 14.0541 and 10.0041 | 91.1619 and 67.352 and 96.5641 and 78.9913 and 73.6029 | 67.2416 and 67.0208 and 59.4522 and 60.425 and 58.2103 | 98.0682 and 96.9022 and 102.332 and 130.626 and 104.719 | 92.8384 and 69.3183 and 103.532 and 88.8644 and 89.4508 | 49 |
| CN(CCOCCNC(=O)CNc1cccc2c1C(=O)N(C1CCC(=O)NC1=O)C2=O)C(C)(C)C=C(C#N)C(=O)N1CCC[C@@H](n2nc(-c3ccc(Oc4ccccc4)cc3)c3c(N)ncnc32)C1 (stereo partly shown) [RC-3] | 6.131 and 2.152 and 5.745 and 1.563 and 5.644 | 83.11 and 86.5611 and 70.0365 and 75.0101 and 88.6317 | 14.9208 and 11.551 and 11.6931 and 9.785 and 11.754 | 76.8575 and 93.7881 and 76.4921 and 85.0995 and 82.1762 | 53.106 and 44.4377 and 39.7686 and 41.149 and 48.4166 | 89.9919 and 78.9687 and 69.3463 and 82.7852 and 87.4746 | 71.5794 and 85.3634 and 65.8344 and 81.7296 and 79.4965 | 39 |
